The record followed here is US20080145343A1, “Conjugates of biologically active compounds, methods for their preparation and use, formulation and pharmaceutical applications thereof” (priority 2002, published 2008).

In series [1] the test system is white blood cells. Description: Immune cell selective uptake from blood cell mix (immune selectivity ratio method). It counts as cell-based, mammalian. On the procedure:
Freshly drawn heparinised blood or buffy coat preparations are used for the determination of immune cell partition ratios. Buffy coat preparations are preferred. These may be obtained from donor blood by simple centrifugation of whole blood (4795 g for 10 minutes). Following centrifugation, plasma is collected from the surface, after which immune cells are expressed from the donor bags along with the erythrocytes lying immediately below the leukocyte layer. This ensures high yields and a sufficient population of erythrocytes for partition. 5 ml of the resulting cell suspension are dispensed into T25 culture flasks. Substrates are added to a final concentration between 1 and 10 μM and the suspensions incubated at 37° C., in a 5% CO2 atmosphere. For analysis of uptake kinetics, samples are withdrawn at 0, 2, 5, 10, 30, 60, 90, 180, or 240 min after substrate addition. For screening purposes, samples are taken at 0 and 120 minutes. […]
Uptake of fluorescent compounds is monitored using fluorescence microscopy. Excitation and emission wavelengths depend of the fluorescence label in use. […]
Cell lysates are analysed using a HP 1100 HPLC System (Agilent Technologies, Waldbronn, Germany) with a Kromasil 3.5μ C18, 50×2.0 mm column and guard cartridge system (both, Phenomenex, Aschaffenburg, Germany) run at 30° C. […]
Masses are monitored according to the known or expected M/Z ratios. […]

The test system of series [2] is E. coli (DH5α). The series is described as follows: Testing of antibiotic activity (TC50, dilution assay, turbidity). The note with it: concentration that inhibits 50% of the growth. It is filed as cell-based. The procedure:
The TC50 or MIC procedure for antibiotic sensitivity testing involves an antibiotic dilution assay, which can be performed in microtitre plates. A series of twofold dilutions of each antibiotic are made in the wells, and then all wells are inoculated with a standard amount of the same test organism. After incubation, growth in the presence of the various antibiotics is observed by measuring turbidity.
Bacteria: B. pumilus and E. coli (DH5α) Bacterial cultures are initiated from the plates for 2 to 3 weeks. After this time period bacteria are streaked out on new plates from the backups stored at −80° C. Due to the lack of resistance of the bacteria, new cultures are not to be initiated from an old plate or any liquid cultures derived from old plates. Growth medium (GM) (per liter): 10 g Bacto-tryptone, 5 g Bacto-yeast extract, 6 g HEPES (25 mM), 5.4 g NaCl, pH 7.3 Compound stocks 10 or 100 mM in DMSO stored at −20° C.
• 1. Grow B. pumilus from an LB agar plate in a flask (max. 10% volume) up to about 50 ml in growth medium (GM) • 2. Dilute overnight suspension 1:10 in GM • 3. Determine OD600 of diluted bacterial suspension • 4. Dilute bacterial suspension in GM to an OD600 of 0.03-0.04. (6 ml/plate) • 5. Add 200 μl GM to the outer wells (Row A, Row H, Column 1, Column 12) • 6. Add 100 μl GM to each well starting from C2, row 3. • 7. Controls: Wells B2-B4 growth control. Wells B6-B8 blank. Row C growth inhibition control. • 7.1. To wells B2-B4 add: 96 μl GM, 4 μl DMSO, and 100 μl bacterial suspension adjusted to an OD600 of 0.03-0.04. • 7.2. To wells B6-B8 add: 196 μl GM and 4 μl DMSO • 7.3. Dilute a 10 mM Compound 43 (positive control) stock to 800 μM (120 μl/plate) in GM. Add 100 μl of 800 μM Compound 43 solution to well C2. • 8. Samples • 8.1. Dilute the 10 or 100 mM stock solutions to 800 μM (250 μl/plate) in GM. • 8.2. Add 100 μl of 800 μM sample in duplicates to wells D2/E2 resp. F2/G2. • 8.3. 2-fold serial dilution of all samples and Azithromycin • 8.3.1. Rows C-G, Columns 2: Mix and transfer 100 μl from each row to Column 3, and continue until column 11. The remaining 100 μl out of column 11 are disposed. • 9. Add 100 μl of bacterial suspension (OD600 0.03-0.04) to each well from C2-G11. • 10. Incubate plates on shaker, 750 rpm, 37° C., until the growth controls have reached an OD600 of 0.6-0.8 (approximately 6-8 h).
11. Determine OD600 on plate reader.

The subject of series [3] is lymphocytes. The series is described as follows: Proliferation assay (BrdU ELISA, phytohemagglutanin-stimulated). The note with it: for Ratio (2 h:72 h): IC50 at 2 h : IC50 at 72 h, lower = better uptake and release; for IC50: Lymphocyte. It counts as cell-based, mammalian. An excerpt: Assay to determine the in vitro rate of, for example, lymphocyte proliferation. Lymphocytes are purified out of ant coagulated (CPDA, citrate or heparin) mammalian blood using the Lymphoprep™ system (supplier). Purified cells are counted using a hemocytometer following Trypan Blue staining, and a cell concentration of 1×10^6 cells/ml established in RPMi 1640 medium with 10% FCS and antibiotics as required (all from Biochrome). Following the addition of a cell proliferation stimulant, for example phytohemagglutanin (Sigma) at, for example an end concentration of 5 μg/ml, the cells are incubated with different concentrations of the to be investigated compound in 100 μl end volume in a 96-well microtiter plate in an incubator (37° C., 5% CO2, 95% humidity) for 72 h. Cell proliferation is quantified following BrdU incorporation for 16 h by ELISA and subsequent calorimetric development (Cell Proliferation ELISA BrdU (colorimetric) kit from Roche Diagnostics). The IC50 (μM) values are then calculated, and used to compare compound efficacy.
To determine the influence of the T-L-C modification on in vitro cellular drug uptake and pharmacology, the above assay is additionally modified and an additional “wash” step included. In addition to running the assay for 72 h with the compounds to be tested, the assay is also run for just 2 h, then compound is washed away in three serial washing steps using 200 μl of medium at each step, and the cells subsequently incubated for a further 70 h. […] The lower the number, the better the uptake and drug release from the T-L-C in the cells (see results in Table 4 for examples), and improvement over mycophenolic acid.
For orientation: Uptake of a labelled nucleoside into DNA is a usual measure of proliferation.

Where [4] appears, read: read-out: IC50 (μM) at 2 h, 2 h with compound, washed away, further 70 h incubation.
The mark [5] stands for this setting: 72 h incubation with compound, read-out: IC50 (μM) at 72 h.

For orientation: IC50 means the point on the concentration scale where inhibition reaches its midpoint.

Like-named read-outs stand apart in the source and are kept apart here. A value given as a limit tells only on which side of the number the result lay.

`CC[C@H]1OC(=O)[C@H](C)[C@@H](OC2C[C@@](C)(OC)[C@@H](O)[C@H](C)O2)[C@H](C)[C@@H](OC2O[C@H](C)C[C@H](N(C)C)[C@H]2O)[C@](C)(O)C[C@@H](C)/C(=N/OCc2cc(=O)oc3cc(OC)c(OC)cc23)[C@H](C)[C@@H](O)[C@]1(C)O` (stereo partly drawn) [Compound 3]: the intracellular distribution entry in series [1] (polymorphonuclear cells, fluorescent image (FIG. 3)) is given as “even distribution with some concentration near the nucleus”.

On to `COc1cc(C)c(/C(=C\C(C)=O)CC(N)C(=O)O)cc1OC` (stereo not drawn) [Compound 4], for which the uptake speed entry in series [1] (fluorescent compounds, images during uptake) is reported as “uptake is rapid”.

With `CC[C@H]1OC(=O)[C@H](C)C(=O)[C@H](C)[C@@H](O[C@@H]2O[C@H](C)CC(N(C)C)[C@H]2O)[C@](C)(O)C[C@@H](C)CN(C)[C@H](C)[C@@H](O)[C@]1(C)O` (stereo partly drawn) [Compound 40], in series [2], the “TC50 in E. coli” value was greater than 50000 nM. On to `CC[C@H]1OC(=O)[C@H](C)[C@@H](O[C@H]2C[C@@](C)(OC)[C@@H](O)[C@H](C)O2)[C@H](C)[C@@H](O[C@@H]2O[C@H](C)C[C@H](N(C)C)[C@H]2O)[C@](C)(O)C[C@@H](C)CN(C)[C@H](C)[C@@H](O)[C@]1(C)O` [Compound 43, 9a-aza-9a-methyl-9-deoxo-9a-homoerythromycin A, reference compound], for which the “TC50 in E. coli” value in series [2] worked out at 2300 nM.

Take `CC[C@H]1OC(=O)[C@H](C)[C@@H](O[C@H]2C[C@@](C)(OC)[C@@H](O)[C@H](C)O2)[C@H](C)[C@@H](O[C@@H]2O[C@H](C)CC(N(C)C(=O)CN(C)CCO)[C@H]2O)[C@](C)(O)C[C@@H](C)CN(C)[C@H](C)[C@@H](O)[C@]1(C)O` (stereo partly drawn) [Compound 45]: the “TC50 in E. coli” value in series [2] was greater than 50000 nM. For the molecule `CC[C@H]1OC(=O)[C@H](C)C(=O)[C@H](C)[C@@H](O[C@@H]2O[C@H](C)C[C@H](N(C)C)[C@H]2OC(=O)Cc2ccccc2Nc2c(Cl)cccc2Cl)[C@](C)(O)C[C@@H](C)CN(C)[C@H](C)[C@@H](O)[C@]1(C)O` [Compound 53], the “TC50 in E. coli” value in series [2] was greater than 50000 nM. Consider `CC[C@H]1OC(=O)[C@H](C)[C@@H](O[C@H]2C[C@@](C)(OC)[C@@H](O)[C@H](C)O2)[C@H](C)[C@@H](O[C@@H]2O[C@H](C)CC(N(C)C)[C@H]2OC(=O)CC/C(C)=C/Cc2c(O)c3c(c(C)c2OC)COC3=O)[C@](C)(O)C[C@@H](C)CN(C)[C@H](C)[C@@H](O)[C@]1(C)O` (stereo partly drawn) [Compound 67], for which the “Ratio (2 h:72 h)” value in series [3] came to 1.3. Besides, the IC50 in series [3] (setting [4]) came out at 1.74 µM; in series [3] (setting [5]) it was 1.36 µM. For `CCOC(=O)CC/C(C)=C/Cc1c(CC(=O)CCC(=O)O[C@@H]2C(N(C)C)C[C@@H](C)O[C@H]2O[C@@H]2[C@@H](C)[C@H](O[C@H]3C[C@@](C)(OC)[C@@H](O)[C@H](C)O3)[C@@H](C)C(=O)O[C@H](CC)[C@@](C)(O)[C@H](O)[C@@H](C)N(C)C[C@H](C)C[C@@]2(C)O)c2c(c(C)c1OC)COC2=O` (stereo partly drawn) [Compound 69] the same measures were 1.9, 2.66 µM and 1.4 µM. For `CC[C@H]1OC(=O)[C@H](C)[C@@H](C)[C@H](C)[C@@H](O[C@@H]2O[C@H](C)C[C@@H](N(C)CCOC(=O)CC/C(C)=C/Cc3c(O)c4c(c(C)c3OC)COC4=O)[C@@H]2N(C)C)[C@](C)(O)C[C@@H](C)CN(C)[C@H](C)[C@@H](O)[C@]1(C)O` [Compound 74] the same measures were 1.45, 3.2 µM and 2.2 µM.
